In brackets after ≈: the same amount, converted by molar mass.
How the values were obtained:
Mtb KZN494 = experiment: microbe, parasite or virus in culture; format: cell-based; conditions: Mycobacterium tuberculosis, KZN494, read-out: Mtb MIC KZN494/ MDR
Mtb TF274 = experiment: microbe, parasite or virus in culture; format: cell-based; conditions: Mycobacterium tuberculosis, TF274, read-out: Mtb MIC TF274/ XDR
mutant Mtb strain IAR2 = format: cell-based, Mycobacterium tuberculosis

c1ccc(-c2ccc(-c3ccnc(CN4CCC5(CCCC5)CC4)c3)cc2)cc1 [Compound 62, 8-((4-([1,1'-Biphenyl]-4-yl)pyridin-2-yl)methyl)-8-azaspiro[4.5]decane]
MIC (Mtb KZN494): 0.0156 to 0.0313 µg/mL (≈ 0.0408 to 0.0818 µM)
MIC (Mtb TF274): 0.0039 µg/mL (≈ 0.0102 µM)
MIC IAR2 (mutant Mtb strain IAR2): 1 µg/mL (≈ 2.61 µM)

Reference: article PMC10239758 (European journal of medicinal chemistry, 2023)
